Laboratory results: US9988371B2, “Benzimidazole analogues and related methods” (The Arizona Board of Regents, on Behalf of the University …, priority 2014, dated 2018)

Target: VEGFR2 (Homo sapiens, UniProt P35968)
Test: VEGFR2 autophosphorylation immunoblot in HEK293 cells stimulated with VEGF
Format: cell-based
Parameters: expressed in transfected cells; host or cells: HEK293
Method: FIG. 4: Photograph of blot showing inhibition of VEGFR2 phosphorylation ectopically expressed in HEK293 cells by indicated doses of Pz-1 or vehicle (NT: not treated). HEK293 cells were transiently transfected with vector expressing VEGFR2. 36 hr following transfection, cells were serum-starved for 12 hr, treated for 2 hr with indicated concentrations of Pz-1 and finally treated with VEGF-A (100 ng/ml) for 15 min. 50 μg of total cell lysates were subjected to immunoblotting with anti-phospho-Y1175 (αpVEGFR2) VEGFR2 antibodies. The blot was normalized using anti-VEGFR2 (αVEGFR2) antibody.
The inhibition of RET auto-phosphorylation by Pz-1 was measured in several different cell lines including NIH3T3 fibroblasts expressing RET/C634Y or RET/M918T, TT expressing RET/C634W (MTC), Nthy-ory-3-1 (thyroid, non-transformed with RET; negative control), HEK293/RET/PTC1 (CCDC6-RET that can be found in PTC & lung cancer), HEK293/RET-KIF5B (that can be found in lung cancer), HEK293/RET/PTC3 (NCOA4-RET, that can be found in PTC & lung cancer), and HEK293 transfected with RET/C634R-V804M (FIGS. 1-3). HEK293 cells were transiently transfected with expression vectors comprising the desired mutant. […]
Protein lysates were prepared according to standard procedures. […] Immune complexes were detected with the enhanced chemiluminescence kit (Amersham Pharmacia Biotech, Little Chalfort, UK). […]

Sequence of VEGFR2 (P35968 20-1356): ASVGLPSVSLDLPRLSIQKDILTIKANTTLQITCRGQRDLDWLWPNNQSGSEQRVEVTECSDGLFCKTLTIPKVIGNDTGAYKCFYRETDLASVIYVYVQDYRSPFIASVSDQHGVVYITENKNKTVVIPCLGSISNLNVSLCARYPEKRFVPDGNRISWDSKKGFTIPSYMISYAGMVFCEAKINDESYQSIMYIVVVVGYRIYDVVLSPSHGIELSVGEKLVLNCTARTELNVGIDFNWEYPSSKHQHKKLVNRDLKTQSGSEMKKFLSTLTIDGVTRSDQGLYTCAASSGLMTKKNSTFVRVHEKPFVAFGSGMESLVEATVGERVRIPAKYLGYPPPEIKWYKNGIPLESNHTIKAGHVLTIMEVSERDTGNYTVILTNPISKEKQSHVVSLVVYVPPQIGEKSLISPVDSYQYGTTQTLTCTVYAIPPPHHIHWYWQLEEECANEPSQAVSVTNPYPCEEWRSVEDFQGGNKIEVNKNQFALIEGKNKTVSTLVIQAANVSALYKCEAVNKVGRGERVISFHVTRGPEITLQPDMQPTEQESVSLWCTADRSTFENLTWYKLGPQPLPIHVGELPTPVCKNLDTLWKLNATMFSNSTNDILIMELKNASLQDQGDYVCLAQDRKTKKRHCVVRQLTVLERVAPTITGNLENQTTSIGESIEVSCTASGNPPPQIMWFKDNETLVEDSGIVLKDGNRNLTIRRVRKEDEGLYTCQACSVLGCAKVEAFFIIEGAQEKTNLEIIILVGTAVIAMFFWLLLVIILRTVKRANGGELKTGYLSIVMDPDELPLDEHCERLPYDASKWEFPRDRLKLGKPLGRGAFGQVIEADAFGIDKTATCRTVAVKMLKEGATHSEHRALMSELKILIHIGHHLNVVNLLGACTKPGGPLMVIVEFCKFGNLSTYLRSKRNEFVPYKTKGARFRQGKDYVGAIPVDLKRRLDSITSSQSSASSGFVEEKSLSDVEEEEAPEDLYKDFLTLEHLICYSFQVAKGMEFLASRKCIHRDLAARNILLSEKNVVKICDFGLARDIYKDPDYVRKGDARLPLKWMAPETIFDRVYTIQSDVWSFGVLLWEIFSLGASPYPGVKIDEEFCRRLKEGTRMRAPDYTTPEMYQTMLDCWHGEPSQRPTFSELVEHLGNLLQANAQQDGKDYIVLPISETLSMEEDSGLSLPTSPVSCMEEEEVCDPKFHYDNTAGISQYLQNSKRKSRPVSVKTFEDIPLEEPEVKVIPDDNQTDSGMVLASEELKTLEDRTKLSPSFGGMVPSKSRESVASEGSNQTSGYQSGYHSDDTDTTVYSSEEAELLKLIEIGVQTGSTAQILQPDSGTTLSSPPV

Compound: Cn1cc(-c2ccc3c(c2)ncn3-c2ccc(CC(=O)Nc3cc(C(C)(C)C)on3)cc2)cn1 [Pz-1, N-(5-(tert-butyl)isoxazol-3-yl)-2-(4-(5-(1-methyl-1H-pyrazol-4-yl)-1H-benzo[d]imidazol-1-yl)phenyl)acetamide]
- inhibition of VEGFR2 autophosphorylation (1 nM, HEK 293 transiently transfected with VEGFR2, stimulated with VEGF): strongly inhibited
- inhibition of VEGFR2 auto-phosphorylation (nanomolar concentrations): 90%
